Measurements from ChEMBL document CHEMBL5241108 (J Med Chem, 2021).
Values after ≈ are worked out from the molar mass of the structure shown.

Assays:
[1] = Lipophilicity, logD of compound at pH 7.5 by reversed-phase HPLC analysis; assay type: physicochemical; settings: buffer
[2] = Acid dissociation constant, pKa of the compound; assay type: physicochemical
[3] = Metabolic stability in Han Wistar rat liver microsomes assessed as intrinsic clearance at 1 uM in presence of NADP and measured upto 60 mins by LC-MS/MS analysis; assay type: ADME, Microsome; settings: read-out: CLH (converted)
[4] = Metabolic stability in Han Wistar rat hepatocytes assessed as intrinsic clearance at 1 uM in presence of NADP and measured upto 90 mins by LC-MS/MS analysis; assay type: ADME, cell-based, Hepatocyte; settings: read-out: CLH (converted)
[5] = Metabolic stability in Han Wistar rat liver microsomes assessed as maximum bioavailability at 1 uM in presence of NADP and measured upto 60 mins by LC-MS/MS analysis; assay type: ADME, Microsome; settings: read-out: Fmax
[6] = Metabolic stability in Han Wistar rat hepatocytes assessed as maximum bioavailability at 1 uM in presence of NADP and measured upto 90 mins by LC-MS/MS analysis; assay type: ADME, Hepatocyte; settings: read-out: Fmax
[7] = Aqueous solubility of compound at pH 6.5 and measured after 24 hrs by HPLC-MS/MS analysis; assay type: physicochemical; settings: buffer
[8] = Stability of compound at pH 10 at 5 uM and measured upto 24 hrs by HPLC-UV analysis; assay type: physicochemical; settings: buffer, pH 10, 24 h
[9] = Stability of compound at pH 7 at 5 uM and measured upto 24 hrs by HPLC-UV analysis; assay type: physicochemical; settings: buffer, pH 7, 24 h
[10] = Stability of compound at pH 1 at 5 uM and measured upto 24 hrs by HPLC-UV analysis; assay type: physicochemical; settings: buffer, pH 1, 24 h
[11] = Metabolic stability in human liver microsomes assessed as maximum bioavailability at 1 uM in presence of NADP and measured upto 60 mins by LC-MS/MS analysis; assay type: ADME, Microsome; settings: read-out: Fmax

| chromatographic logD [1] | SMILES | also measured |
| --- | --- | --- |
| 3.6 | CCOc1ccccc1-c1ccc(-c2nc3cnccc3c(N[C@H](CC)C(=O)NCC(F)F)c2C#N)cc1 | – |
| 3.8 | CCOc1ccccc1-c1ccc(-c2nc3cnccc3cc2C#N)cc1 | – |
| 2.8 | CCOc1ccccc1-c1ccc(-c2nc3cnccc3c(NC(COC)C(N)=O)c2C#N)cc1 (racemic) | – |
| 2.1 | CCOc1ccccc1-c1ccc(-c2nc3cnccc3c(NC(C)C(=O)O)c2C#N)cc1 (racemic) | pKa [2]: 3.26 |
| 3.4 | CCOc1ccccc1-c1ccc(-c2nc3cnccc3c(N[C@H](CC(C)C)C(N)=O)c2C#N)cc1 | – |
| 3 | CCOc1ccccc1-c1ccc(-c2nc3cnccc3c(N)c2C#N)cc1 | – |
| 2.2 | CCOc1ccccc1-c1ccc(-c2nc3cnccc3c(N[C@H](CC)C(=O)NS(C)(=O)=O)c2C#N)cc1 | – |
| 3 | CCOc1ccccc1-c1ccc(-c2nc3cnccc3c(NC(C(N)=O)C3CC3)c2C#N)cc1 (racemic) | – |
| 2.7 | CCOc1ccccc1-c1ccc(-c2nc3cnccc3c(N[C@@H]3CCNC3=O)c2C#N)cc1 | – |
| 3.6 | CCCCC(Nc1c(C#N)c(-c2ccc(-c3ccccc3OCC)cc2)nc2cnccc12)C(N)=O (racemic) | – |
| 3.7 | CCOc1ccccc1-c1ccc(-c2nc3cnccc3c(N[C@H](CC)C(=O)N(C)C)c2C#N)cc1 | – |
| 3.6 | CCOc1ccccc1-c1ccc(-c2nc3cnccc3c(NC(CC)CNS(=O)(=O)C3CC3)c2C#N)cc1 (racemic) | – |
| 3 | CCOc1ccccc1-c1ccc(-c2nc3cnccc3c(C[C@H](C)C(N)=O)c2C#N)cc1 | – |
| 2.3 | CCOc1ccccc1-c1ccc(-c2nc3cnccc3c(N[C@H](CC)C(=O)NS(=O)(=O)C3CC3)c2C#N)cc1 | – |
| 2.1 | CCOc1ccccc1-c1ccc(-c2nc3cnccc3c(N[C@H](CC)C(=O)O)c2C#N)cc1 | CLint scaled at 1 µM [3]: 8.33 mL/min/kg; CLint scaled at 1 µM [4]: 8.33 mL/min/kg; Fh at 1 h, 1 µM [5]: 87%; Fh at 1.5 h, 1 µM [6]: 87%; solubility at 24 h [7]: 112 µg/mL (≈ 248 µM) |
| 3 | CC[C@@H](Nc1c(C#N)c(-c2ccc(-c3ccccc3C)cc2)nc2cnccc12)C(N)=O | – |
| 2.9 | CC[C@@H](Nc1c(C#N)c(-c2ccc(-c3ccccc3Cl)cc2)nc2cnccc12)C(N)=O | – |

More lines, now with the values behind:

| SMILES | chromatographic logD [1] | also measured |
| --- | --- | --- |
| CC[C@@H](Nc1c(C#N)c(-c2ccc(-c3ccncc3C)cc2)nc2cnccc12)C(N)=O | 2 | – |
| CC(C)(Nc1c(C#N)c(-c2ccc(Br)cc2)nc2cnccc12)C(N)=O | 2.1 | – |
| CC[C@@H](Nc1c(C#N)c(-c2ccc(-c3ccccc3CO)cc2)nc2cnccc12)C(N)=O | 2.1 | – |
| CC[C@@H](Nc1c(C#N)c(-c2ccc(-c3cccc(C)c3)cc2)nc2cnccc12)C(N)=O | 3 | – |
| CC[C@@H](Nc1c(C#N)c(-c2ccc(-c3cccc(Cl)c3OC)cc2)nc2cnccc12)C(N)=O | 3.1 | – |
| CC[C@@H](Nc1c(C#N)c(-c2ccc(-c3ccccc3NC)cc2)nc2cnccc12)C(N)=O | 2.5 | – |
| CC[C@@H](Nc1c(C#N)c(-c2ccc(-c3ccc(F)cc3)cc2)nc2cnccc12)C(N)=O | 2.7 | – |
| CC(Nc1c(C#N)c(-c2ccc(Br)cc2)nc2cnccc12)C(N)=O (racemic) | 2.1 | – |
| CC[C@@H](Nc1c(C#N)c(-c2ccc(-c3ccccc3C(F)(F)F)cc2)nc2cnccc12)C(N)=O | 3.1 | – |
| CC[C@@H](Nc1c(C#N)c(-c2ccc(-c3ccccc3N(C)C)cc2)nc2cnccc12)C(N)=O | 3.2 | – |
| CC[C@@H](Nc1c(C#N)c(-c2ccc(-c3cccc(Cl)c3)cc2)nc2cnccc12)C(N)=O | 3.1 | – |
| CC[C@@H](Nc1c(C#N)c(-c2ccc(-c3ncccc3C)cc2)nc2cnccc12)C(N)=O | 2 | – |
| CC[C@@H](Nc1c(C#N)c(-c2ccc(-c3ccccc3COC)cc2)nc2cnccc12)C(N)=O | 2.6 | – |
| CC[C@@H](Nc1c(C#N)c(-c2ccc(-c3cccnc3C)cc2)nc2cnccc12)C(N)=O | 1.9 | – |
| CCOc1ccccc1-c1ccc(-c2nc(NC(C)C(=O)O)c3ccncc3n2)cc1 (racemic) | 2.1 | – |
| CC[C@@H](Nc1c(C#N)c(-c2ccc(-c3cccc(C)c3F)cc2)nc2cnccc12)C(=O)O [BAY-091] | 2.1 | CLint scaled at 1 µM [3]: 46.7 mL/min/kg; CLint scaled at 1 µM [4]: 38.3 mL/min/kg; Fh at 1 h, 1 µM [5]: 33%; Fh at 1.5 h, 1 µM [6]: 44%; solubility at 24 h [7]: > 1000 µg/mL; Stability [8]: Stable; Stability [9]: Stable; Stability [10]: Stable; Fh at 1 h, 1 µM [11]: 100% |
| CC[C@@H](Nc1c(C#N)c(-c2ccc(-c3cccc(Cl)c3F)cc2)nc2cnccc12)C(=O)O | 2.2 | – |
| CC[C@@H](Nc1c(C#N)c(-c2ccc(Br)cc2)nc2cnccc12)C(=O)O | 1.6 | – |
| CC[C@@H](Nc1c(C#N)c(-c2ccc(-c3cccc(CO)c3)cc2)nc2cnccc12)C(N)=O | 2 | – |
| CC[C@@H](Nc1c(C#N)c(-c2ccc(-c3ccccc3C(C)C)cc2)nc2cnccc12)C(N)=O | 3.5 | – |
| CC[C@@H](Nc1c(C#N)c(-c2ccc(-c3cnccc3C)cc2)nc2cnccc12)C(N)=O | 2 | – |
